Laboratory results as given in US9446047B2, “Substituted 2,3-dihydro-1H-inden-1-one retinoic acid-related orphan nuclear receptor antagonists for treating multiple sclerosis” (Arrien Pharmaceuticals LLC, priority 2013, dated 2016).

Key:
RORγ-LBD (RORγt) = biological target: T1, RORγ-LBD (RORγt) (Homo sapiens, UniProt P51449); assay: TR-FRET RORγt Binding Assay; conditions: 6-His(GST)RORγ-LBD, SRC1_2 peptide, read-out: RORγt Binding
T1 construct: the 6-His-(GST) RORγ-LBD was used which expressed and purified from baculovirus infected Sf-21 insect cells; made in house; host or cells: baculovirus-infected Sf-21 insect cells
T1 sequence (P51449 269-508 limits assumed): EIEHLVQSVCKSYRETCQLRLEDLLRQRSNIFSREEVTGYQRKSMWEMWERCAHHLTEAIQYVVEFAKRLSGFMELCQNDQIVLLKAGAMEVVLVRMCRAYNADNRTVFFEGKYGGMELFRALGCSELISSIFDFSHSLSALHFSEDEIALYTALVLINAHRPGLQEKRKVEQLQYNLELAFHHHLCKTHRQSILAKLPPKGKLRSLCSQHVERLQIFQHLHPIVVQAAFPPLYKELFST
Method: TR-FRET RORγt Binding Assay: RORγ-LBD contains a 6-His and GST tag peptide from SRC1-2 an aminoterminal biotinyl-[…] was employed and the 6-His-(GST) RORγ-LBD was used which expressed and purified from baculovirus infected Sf-21 insect cells from Invitrogen and purified using glutathione sepharose. […] The peptide binding due to dose-curves of compounds was added the 0.1% DMSO. Fluorescence at wavelength 340 nm was read in each well of […] using an Envision fluorescence reader in Time Resolved mode after overnight incubation at 4° C.

RORγt = biological target: T2, RORγt (Homo sapiens, UniProt P51449); assay: RORγt-activated IL-17A Prom/LUCPorter HEK 293 cells luciferase reporter assay; type: cell-based; conditions: IL-17A Prom/LUCPorter HEK 293 cells transfected with RORγt, 16 h; read-out: RORγt Cell Specific
T2 construct: host or cells: IL-17A Prom/LUCPorter HEK 293 cell line (IMGENEX, IML-301)
T2 sequence (P51449 1-497 isoform P51449-2): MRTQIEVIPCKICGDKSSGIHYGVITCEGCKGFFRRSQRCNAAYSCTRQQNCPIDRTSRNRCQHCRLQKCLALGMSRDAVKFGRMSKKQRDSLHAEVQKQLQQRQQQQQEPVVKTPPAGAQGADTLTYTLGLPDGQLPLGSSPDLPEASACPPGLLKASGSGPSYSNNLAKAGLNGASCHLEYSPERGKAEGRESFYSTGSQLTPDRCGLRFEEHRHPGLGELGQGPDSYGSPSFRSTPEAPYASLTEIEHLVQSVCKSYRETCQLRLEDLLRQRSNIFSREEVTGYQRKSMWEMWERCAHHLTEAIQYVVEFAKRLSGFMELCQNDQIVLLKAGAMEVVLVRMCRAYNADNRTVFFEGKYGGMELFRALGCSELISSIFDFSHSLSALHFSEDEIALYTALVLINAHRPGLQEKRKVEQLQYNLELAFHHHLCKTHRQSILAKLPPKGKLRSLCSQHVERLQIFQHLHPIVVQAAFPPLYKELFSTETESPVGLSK
Method: Antagonistic (or inverse agonistic) effects of the test compounds on the RORγt-activated IL-17A Prom/LUCPorter™ HEK 293 cells were analyzed and IC50 of each compound was evaluated. […] Luciferase activity was analyzed using the luciferase reporter assay reagent (IMGENEX, LS100). The data were analyzed using Excel and Prism software. Percent activity was defined as 100×(1−(Well−Control A)/(Control B−Control A)), where Control A was the wells containing cells transfected with RORγt and Control B was the wells containing non-transfected cells. Both Controls A and B were treated with vehicle alone.

[1] = tested on: IL-17 release from CD4+ T cells; assay: Cytokine IL-17 estimation by HTRF, IL-17 release from CD4+ T cells; type: cell-based; conditions: Homo sapiens, IL-17 release from CD4+ T cells, HTRF, read-out: IL-17 Inhibition
Source text: The assay was designed to assess the potency of test compounds on IL-17 cytokine release from CD4+ T cells. In order to aid in the identification of potent inhibitors, the IC50's determined for the test compounds IL-17 release from CD4+ T cells through the generation of 10 point Dose Response Curves (DRC). Assay methods used to quantify IL-17 secretion is HTRF (Homogenous Time Resolved Fluorescence). IL-17 secreted is detected by anti-IL-17 MAb labeled with XL665, the second MAb labeled with Cryptate, which binds to specific epitopes of human IL-17. Upon close proximity of both acceptor and donor energy transfer (FRET) occurs. This technique has been further enhanced by using long-lived labels combined with the detection on a time-resolved fluorescence basis, allowing […] of prompt fluorescence interferences.
The assay was performed according to manufacturer's instruction. All the reagents were reconstituted according to instructions provided. The reagents were dispensed into a half area 96-well plate in the following order: […] or sample, IL-17 MAbXL665 and 5 μL IL-17 Cryptate. For the negative control, the standard or sample is replaced by […]. The plate is covered with a plate sealer and incubated at rt for 2 h. Following incubation, the plate sealer is removed and the plate is read using HTRF protocol on Envision Microplate reader. All of the data analysis was carried out using Microsoft Excel (2010) and IC50 was determined using GraphPad Prism 4 software. % Inhibition of the test compounds were determined utilizing the following formula: % Inhibition=100−(100*(Average Test Compound Counts−Average Negative Control Counts)/(Average Positive Control Counts−Average Negative Control Counts)).
We have established robust in vitro cell-based HTRF assay for the activation and stimulation of CD4+ T lymphocytes to T helper 17 (Th17) cell differentiation and IL-17 production.

Structure (SMILES) | IC50 (RORγ-LBD (RORγt)) | IC50 (RORγt) | IC50 [1]
COc1cc2c(c(N3CCN(C)CC3)c1OC)CC(Cc1ncccc1C(F)(F)F)C2=O (stereo not drawn) [compound 128, 5,6-dimethoxy-4-(4-methylpiperazin-1-yl)-2-((3-(trifluoromethyl)pyridin-2-yl)methyl)-2,3-dihydro-1H-inden-1-one] | > 1 µM | > 1 µM | > 1 µM
COc1cc2c(cc1N1CCC(F)CC1)CC(Cc1ncccc1C(F)(F)F)C2=O (stereo not drawn) [compound 151, 5-(4-fluoropiperidin-1-yl)-6-methoxy-2-((3-(trifluoromethyl)pyridin-2-yl)methyl)-2,3-dihydro-1H-inden-1-one] | > 1 µM | > 1 µM | > 1 µM
COc1cc2c(c(N3CCC(C)CC3)c1OC)CC(Cc1ncccc1C(F)(F)F)C2=O (stereo not drawn) [compound 133, 5,6-dimethoxy-4-(4-methylpiperidin-1-yl)-2-((3-(trifluoromethyl)pyridin-2-yl)methyl)-2,3-dihydro-1H-inden-1-one] | > 1 µM | > 1 µM | > 1 µM
COc1cc2c(cc1N1CCOCC1)CC(Cc1cc(Cl)ccc1C(F)(F)F)C2=O (stereo not drawn) [compound 53, 2-(5-chloro-2-(trifluoromethyl)benzyl)-6-methoxy-5-morpholino-2,3-dihydro-1H-inden-1-one] | > 1 µM | > 1 µM | > 1 µM
COc1cc2c(cc1N1CCOCC1)CC(Cc1ccc(F)cc1F)C2=O (stereo not drawn) [compound 28, 2-(2,4-difluorobenzyl)-6-methoxy-5-morpholino-2,3-dihydro-1H-inden-1-one] | > 1 µM | > 10 µM | > 1 µM
COc1cc2c(cc1-c1ccc(OC(F)(F)F)cc1F)CC(Cc1ncccc1C(F)(F)F)C2=O (stereo not drawn) [compound 216] | > 1 µM | > 1 µM | < 0.5 µM
COc1cc2c(cc1N1CCOCC1)C/C(=C\c1cc(Br)cc(OC(F)(F)F)c1)C2=O [compound 30, (E)-2-(3-bromo-5-(trifluoromethoxy)benzylidene)-6-methoxy-5-morpholino-2,3-dihydro-1H-inden-1-one] | > 10 µM | > 10 µM | > 1 µM
COc1cc2c(cc1O)C(=O)C(Cc1ccc(SC(F)(F)F)cc1)C2 (stereo not drawn) [compound 187] | > 1 µM | > 1 µM | < 0.5 µM
COc1cc2c(cc1Cl)CC(Cc1ccc(SC(F)(F)F)cc1)C2=O (stereo not drawn) [compound 172] | > 1 µM | > 1 µM | < 0.5 µM
COc1cc2c(cc1N1CCOCC1)CC(Cc1sc(N3CCOCC3)nc1Cl)C2=O (stereo not drawn) [compound 47, 2-((4-chloro-2-morpholinothiazol-5-yl)methyl)-6-methoxy-5-morpholino-2,3-dihydro-1H-inden-1-one] | > 1 µM | > 1 µM | > 1 µM
COc1cc2c(cc1N1CCOCC1)CC(Cc1cccc(C(F)(F)F)c1F)C2=O (stereo not drawn) [compound 80] | > 1 µM | > 1 µM | > 1 µM

Stronger by IC50 (RORγ-LBD (RORγt)), values ahead:

IC50 (RORγ-LBD (RORγt)) | IC50 (RORγt) | IC50 [1] | Structure (SMILES)
< 0.5 µM | < 0.5 µM | < 0.5 µM | COc1cc2c(cc1N1CCN(CCO)CC1)CC(Cc1ncccc1C(F)(F)F)C2=O (stereo not drawn) [compound 251]
< 0.5 µM | > 1 µM | > 1 µM | COc1cc2c(cc1N1CCN(C)CC1)CC(Cc1cccc(C(F)(F)F)c1)C2=O (stereo not drawn) [compound 103, 6-methoxy-5-(4-methylpiperazin-1-yl)-2-(3-(trifluoromethyl)benzyl)-2,3-dihydro-1H-inden-1-one]
< 0.5 µM | < 0.5 µM | < 0.5 µM | COc1cc2c(cc1N1CCOCC1)CC(Cc1ncc(C(O)(C(F)(F)F)C(F)(F)F)cc1C(F)(F)F)C2=O (stereo not drawn) [compound 268]
< 0.5 µM | > 1 µM | > 10 µM | COc1cc2c(cc1N1CCC(C)CC1)CC(Cc1ccc(SC(F)(F)F)cc1)C2=O (stereo not drawn) [compound 140]
< 0.5 µM | > 1 µM | < 0.5 µM | COc1ccc2c(c1)CC(Cc1ncccc1C(F)(F)F)C2=O (stereo not drawn) [compound 184]
< 0.5 µM | > 1 µM | > 1 µM | COc1cc2c(cc1N1CCN(C)CC1)CC(Cc1ccc(SC(F)(F)F)cc1)C2=O (stereo not drawn) [compound 106]
< 0.5 µM | < 0.5 µM | < 0.5 µM | COc1cc2c(cc1N1CCOCC1)CC(Cc1cc(C(F)(F)F)cc(C(O)(C(F)(F)F)C(F)(F)F)c1)C2=O (stereo not drawn) [compound 229, 2-(3-(1,1,1,3,3,3-hexafluoro-2-hydroxypropan-2-yl)-5-(trifluoromethyl)benzyl)-6-methoxy-5-morpholino-2,3-dihydro-1H-inden-1-one]
< 0.5 µM | > 1 µM | < 0.5 µM | COc1cc2c(cc1N1CCNCC1)CC(Cc1ncccc1C(F)(F)F)C2=O (stereo not drawn) [compound 164]
< 0.5 µM | > 1 µM | > 1 µM | COc1cc2c(cc1N1CCNCC1)CC(Cc1ccc(SC(F)(F)F)cc1)C2=O (stereo not drawn) [compound 117]
< 0.5 µM | < 0.5 µM | < 0.5 µM | COc1cc2c(cc1N1CCOCC1)CC(Cc1ncccc1C(F)(F)F)C2=O (stereo not drawn) [compound 68, 6-methoxy-5-morpholino-2-((3-(trifluoromethyl)pyridin-2-yl)methyl)-2,3-dihydro-1H-inden-1-one]
